From publication PMC12677699, “Utilizing Proteolytic‐Resistant Nano‐Short Peptide Based on Naphthyl Tail‐Anchored to Combat Bacterial Infections” (Advanced Science, 2025)
In brackets after ≈: the same amount, converted by molar mass. Non-standard residues stand in square brackets, D forms with d. Residues, ends and D or L forms follow the SMILES beside them. ξ: configuration not given here. 2Nal = N[C@@H](Cc1ccc2ccccc2c1)C(=O)O; Ahp(2) = CCCCC[C@H](N)C(=O)O; ξAhp(2) = CCCCCC(N)C(=O)O

Key:
E. faecalis 29212 = format: cell-based, Enterococcus faecalis
Method: (§1) The MIC values of the nano‐short peptides were determined according to standard protocols.^[ [63] ^] Bacterial strains were revived from cryopreservation and cultured in Mueller–Hinton broth (MHB) to logarithmic growth phase, then diluted to a final density of 0.5–1 × 10⁶ CFU mL^−1. Serial dilutions of the nano‐short peptides were prepared in 0.2% bovine serum albumin (BSA) using a 96‐well plate format. Equal volumes of peptide solutions and bacterial suspensions were combined and incubated at 37 °C for 20–22 h. Bacterial growth was assessed by measuring absorbance at 492 nm, with MHB alone (negative control) and untreated bacterial suspension (positive control) included for reference.

S. pullorum C7913 = format: cell-based
Method: as §1

S. epidermidis 12228 = format: cell-based, Staphylococcus epidermidis
Method: as §1

MRSA 43300 = format: cell-based, Methicillin-Resistant Staphylococcus aureus
Method: as §1

E. coli UB1005 = format: cell-based, Escherichia coli
Method: as §1

E. coli 25922 = format: cell-based, Escherichia coli
Method: as §1

E. coli 078 = format: cell-based, Escherichia coli
Method: as §1

[1] = Critical aggregation concentration, 1,8-ANS fluorescence; format: physicochemical; conditions: 1,8-ANS 1 × 10^−6 M, peptide 2-256 × 10^−6 M in deionized water, 1 h, ex 360 nm, em 420–670 nm, linear fitting of fluorescence intensities
Method: The self‐assembly behavior of nano‐short peptides was characterized by determining the CAC using 1,8‐ANS as a hydrophobic fluorescent probe.^[ [32] ^] Serial peptide dilutions (2‐256 × 10^−6 M in 50 µL deionized water) were prepared in 96‐well plates. 1,8‐ANS powder was solubilized in dimethylformamide (DMF) and added to the 96‐well plates (final concentration of 1 × 10^−6 M), and deionized water solution containing 1,8‐ANS was used as a blank control. After incubation for 1 h, the fluorescence emission spectra were continuously monitored with a microplate reader (Tecan Infinite200 Pro, λ excitation = 360 nm, λ emission = 420–670 nm). CAC values were determined by linear fitting of representative fluorescence intensities.

S. typhimurium 7731 = format: cell-based, Salmonella typhimurium
Method: as §1

S. typhimurium 14028 = format: cell-based, Salmonella typhimurium
Method: as §1

S. aureus 25923 = format: cell-based, Staphylococcus aureus
Method: as §1

S. aureus 29213 = format: cell-based, Staphylococcus aureus
Method: as §1

P. aeruginosa PAO1 = format: cell-based, Pseudomonas aeruginosa
Method: as §1

P. aeruginosa 27853 = format: cell-based, Pseudomonas aeruginosa
Method: as §1

E. coli ATCC 25922 = assay: Serum tolerance assay (MIC after incubation with serum); format: cell-based, Escherichia coli; conditions: 4 h of incubation with various serum concentrations
Method: The serum stability of nano‐short peptides was evaluated by incubating peptide solutions with fetal bovine serum (FBS), which was at concentrations of 25%, 50%, and 100% (diluted in 0.2% BSA solution). Following 4 h of incubation, the antimicrobial activity was determined by measuring the MIC against the test strains.

S. aureus 11011 = assay: MIC against clinical strain; format: cell-based; conditions: Staphylococcus aureus, 11011, read-out: MIC, S. aureus 11011
Method: as §1

A. baumannii AB1901 = assay: MIC against clinical strain; format: cell-based; conditions: Acinetobacter baumannii, AB1901, read-out: MIC, A. baumannii AB1901
Method: as §1

A. baumannii AB1902 = assay: MIC against clinical strain; format: cell-based; conditions: Acinetobacter baumannii, AB1902, read-out: MIC, A. baumannii AB1902
Method: as §1

P. aeruginosa 25349 = assay: MIC against clinical strain; format: cell-based; conditions: Pseudomonas aeruginosa, 25349, read-out: MIC, P. aeruginosa 25349
Method: as §1

Structure (SMILES)	MIC, E. faecalis 29212 (E. faecalis 29212) [µM]	MIC, S. pullorum C7913 (S. pullorum C7913) [µM]	MIC, S. epidermidis 12228 (S. epidermidis 12228) [µM]	MIC, MRSA 43300 (MRSA 43300) [µM]	MIC, E. coli UB1005 (E. coli UB1005) [µM]	MIC, E. coli 25922 (E. coli 25922) [µM]	MIC, E. coli 078 (E. coli 078) [µM]	critical aggregation concentration (CAC) [1] [µM]	MIC, S. typhimurium 7731 (S. typhimurium 7731) [µM]	MIC, S. typhimurium 14028 (S. typhimurium 14028) [µM]	MIC, S. aureus 25923 (S. aureus 25923) [µM]	MIC, S. aureus 29213 (S. aureus 29213) [µM]	MIC, P. aeruginosa PAO1 (P. aeruginosa PAO1) [µM]	MIC, P. aeruginosa 27853 (P. aeruginosa 27853) [µM]	antimicrobial capacity after serum incubation (E. coli ATCC 25922)	MIC (S. aureus 11011) [µM]	MIC (A. baumannii AB1901) [µM]	MIC (A. baumannii AB1902) [µM]	MIC (P. aeruginosa 25349) [µM]
CCCCCC(N)C(=O)NC(CCCCC)C(=O)NC(CCCCC)C(=O)NC(CCCCC)C(=O)NC(CCCCC)C(=O)N[C@H](CCCNC(=N)N)C(=O)N[C@@H](CCCNC(=N)N)C(=O)N[C@@H](CCCNC(=N)N)C(=O)N1CCC[C@H]1C(=O)O (stereo partly drawn) [Peptide B5] (H-[ξAhp(2)][ξAhp(2)][ξAhp(2)][ξAhp(2)][ξAhp(2)][dR]RRP-OH; N-terminus assumed)	256 (≈ 312 µg/mL)	128 (≈ 156 µg/mL)	256 (≈ 312 µg/mL)	32 (≈ 39 µg/mL)	256 (≈ 312 µg/mL)	256 (≈ 312 µg/mL)	256 (≈ 312 µg/mL)	3.34	256 (≈ 312 µg/mL)	256 (≈ 312 µg/mL)	256 (≈ 312 µg/mL)	256 (≈ 312 µg/mL)	256 (≈ 312 µg/mL)	256 (≈ 312 µg/mL)					
CCCCC[C@H](NC(=O)[C@H](CCCCC)NC(=O)[C@H](CCCCC)NC(=O)[C@@H](N)CCCCC)C(=O)N[C@@H](CCCCC)C(=O)N[C@@H](CCCCC)C(=O)N[C@H](CCCNC(=N)N)C(=O)N[C@@H](CCCNC(=N)N)C(=O)N[C@@H](CCCNC(=N)N)C(=O)N1CCC[C@H]1C(=O)O [Peptide B6] (H-[Ahp(2)][Ahp(2)][Ahp(2)][Ahp(2)][Ahp(2)][Ahp(2)][dR]RRP-OH; N-terminus and C-terminus assumed)	256 (≈ 345 µg/mL)	256 (≈ 345 µg/mL)	256 (≈ 345 µg/mL)	256 (≈ 345 µg/mL)	256 (≈ 345 µg/mL)	256 (≈ 345 µg/mL)	256 (≈ 345 µg/mL)	3.31	256 (≈ 345 µg/mL)	256 (≈ 345 µg/mL)	256 (≈ 345 µg/mL)	256 (≈ 345 µg/mL)	256 (≈ 345 µg/mL)	256 (≈ 345 µg/mL)					
N=C(N)NCCC[C@H](NC(=O)[C@H](Cc1ccc2ccccc2c1)NC(=O)[C@H](Cc1ccc2ccccc2c1)NC(=O)[C@@H](N)Cc1ccc2ccccc2c1)C(=O)N[C@H](CCCNC(=N)N)C(=O)N[C@@H](CCCNC(=N)N)C(=O)N1CCC[C@H]1C(=O)O [Peptide N3] (H-[2Nal][2Nal][2Nal]R[dR]RP-OH)	16 (≈ 18.8 µg/mL)	16 (≈ 18.8 µg/mL)	16 (≈ 18.8 µg/mL)	16 (≈ 18.8 µg/mL)	8 (≈ 9.4 µg/mL)	16 (≈ 18.8 µg/mL)	8 (≈ 9.4 µg/mL)	62.79	32 (≈ 37.6 µg/mL)	32 (≈ 37.6 µg/mL)	16 (≈ 18.8 µg/mL)	16 (≈ 18.8 µg/mL)	16 (≈ 18.8 µg/mL)	8 (≈ 9.4 µg/mL)	retained their original antimicrobial capacity				
N=C(N)NCCC[C@H](NC(=O)[C@H](Cc1ccc2ccccc2c1)NC(=O)[C@H](Cc1ccc2ccccc2c1)NC(=O)[C@H](Cc1ccc2ccccc2c1)NC(=O)[C@H](Cc1ccc2ccccc2c1)NC(=O)[C@@H](N)Cc1ccc2ccccc2c1)C(=O)N[C@H](CCCNC(=N)N)C(=O)N[C@@H](CCCNC(=N)N)C(=O)N1CCC[C@H]1C(=O)O [Peptide N5] (H-[2Nal][2Nal][2Nal][2Nal][2Nal]R[dR]RP-OH)	256 (≈ 402 µg/mL)	256 (≈ 402 µg/mL)	256 (≈ 402 µg/mL)	256 (≈ 402 µg/mL)	256 (≈ 402 µg/mL)	256 (≈ 402 µg/mL)	256 (≈ 402 µg/mL)	11.66	256 (≈ 402 µg/mL)	256 (≈ 402 µg/mL)	256 (≈ 402 µg/mL)	256 (≈ 402 µg/mL)	256 (≈ 402 µg/mL)	256 (≈ 402 µg/mL)					
N=C(N)NCCC[C@H](NC(=O)[C@H](Cc1ccc2ccccc2c1)NC(=O)[C@H](Cc1ccc2ccccc2c1)NC(=O)[C@H](Cc1ccc2ccccc2c1)NC(=O)[C@H](Cc1ccc2ccccc2c1)NC(=O)[C@H](Cc1ccc2ccccc2c1)NC(=O)[C@@H](N)Cc1ccc2ccccc2c1)C(=O)N[C@H](CCCNC(=N)N)C(=O)N[C@@H](CCCNC(=N)N)C(=O)N1CCC[C@H]1C(=O)O [Peptide N6] (H-[2Nal][2Nal][2Nal][2Nal][2Nal][2Nal]R[dR]RP-OH)	256 (≈ 452 µg/mL)	256 (≈ 452 µg/mL)	256 (≈ 452 µg/mL)	256 (≈ 452 µg/mL)	256 (≈ 452 µg/mL)	256 (≈ 452 µg/mL)	256 (≈ 452 µg/mL)	6.65	256 (≈ 452 µg/mL)	256 (≈ 452 µg/mL)	256 (≈ 452 µg/mL)	256 (≈ 452 µg/mL)	256 (≈ 452 µg/mL)	256 (≈ 452 µg/mL)					
CN[C@H](CC(C)C)C(=O)N[C@H]1C(=O)N[C@@H](CC(N)=O)C(=O)N[C@H]2C(=O)N[C@H]3C(=O)N[C@H](C(=O)N[C@H](C(=O)O)c4cc(O)cc(O)c4-c4cc3ccc4O)[C@H](O)c3ccc(c(Cl)c3)Oc3cc2cc(c3O[C@@H]2O[C@H](CO)[C@@H](O)[C@H](O)[C@H]2O[C@H]2C[C@](C)(N)[C@H](O)[C@H](C)O2)Oc2ccc(cc2Cl)[C@H]1O [Vancomycin]																128 (≈ 186 µg/mL)	1 (≈ 1.45 µg/mL)	128 (≈ 186 µg/mL)	128 (≈ 186 µg/mL)
